What was measured:
[1] = test system: A549 (Human lung adenocarcinoma epithelial cell line); experiment: MTT cytotoxicity test, A549; format: cell-based
Experimental: (§1) MTT assay, depending on the capability of metabolically active cells that change the pale yellow MTT colour to a spectrophotometrically measured blue formazan salt, is one of the most favoured cytotoxicity tests. We assessed the antitumor potential of new benzothiazole-acylhydrazones on A549, C6, MCF-7, and HT-29 cell lines with various concentrations (1 mM, 0.316 mM, 0.1 mM, 0.0316 mM, 0.01 mM, 0.00316 mM, 0.001 mM, 0.000316 mM). In addition, the cytotoxic activities of compounds 4a–4j were evaluated against healthy NIH3T3 cells, owing to show the selectivity towards carcinogenic cells. The IC50 values of the compounds against cell lines are represented in Table 1.
(§2) Metabolic activity of viable cells was measured by MTT assay based on the reduction of 3-(4,5-dimethylthiazol-2-yl)-2,5-diphenyltetrazolium salt to a formazan product, which can be quantified spectrophotometrically to determine the percent of viable cells.
(§3) Anticancer activities of new benzothiazole acylhydrazones derivatives were evaluated against A549 C6, MCF-7 and HT-29 cell lines. The selectivity of their cytotoxic effects was evaluated on NIH/3T3 mouse embryonic fibroblast cells. NIH/3T3 cells were incubated in DMEM supplemented with fetal calf serum, penicillin (100 IU/mL), streptomycin ([…]) and 7.5% NaHCO3 at 37 °C in a humidified atmosphere of 95% air and 5% CO2. Carcinogenic cells were incubated in RPMI medium supplemented with fetal calf serum, penicillin (100 IU/mL), streptomycin ([…]) and 7.5% NaHCO3 at 37 °C in a humidified atmosphere of 95% air and 5% CO2. All cell lines were seeded at a density of 1 × 10^4 cells into the 96-well plates. After 24 h of incubating period, the culture mediums were removed and test compounds were added at concentrations of 0.000316–1 mM. After a 24 h incubation period, OD of samples were measured by a microplate reader (Biotek, Winooski, VT, USA) at 540 nm. Inhibition % at concentrations was determined using the formula below and IC50 values were calculated by nonlinear regression analysis using the SigmaPlot v.10 package program (Manufacturer, City, US State abbrev. if applicable, Country).

[2] = test system: C6 (Rat brain glioma cell line); experiment: MTT cytotoxicity test, C6; format: cell-based; conditions: 24 h incubation
Experimental: as §1, §2, §3

[3] = test system: MCF-7 (Human breast adenocarcinoma cell line); experiment: MTT cytotoxicity test, MCF-7; format: cell-based
Experimental: as §1, §2, §3

[4] = test system: HT-29 (Human colorectal adenocarcinoma cell line); experiment: MTT cytotoxicity test, HT-29; format: cell-based
Experimental: as §1, §2, §3

[5] = test system: NIH3T3 (Mouse embryo fibroblast cell line); experiment: MTT cytotoxicity test, healthy NIH3T3 cells; format: cell-based; conditions: for IC50: MTT, 24 h incubation, healthy cells
Experimental: as §1, §2, §3

C6 cell line = experiment: Flow cytometric analysis (Annexin V-FITC/PI); format: cell-based, Rat; conditions: for Q1 percentage of necrotic cells / Q2 percentage of late apoptotic cells / Q4 percentage of early apoptotic cells / Q3 percentage of viable cells / viability at 15 µM: 24 h; for percentages of apoptotic cells: C6, at IC50 concentrations, 24 h (sum of Q2 and Q4); for viability at 15 µM: Rattus norvegicus, read-out: Q3 percentage of viable cells
Text: In the therapy of cancer, apoptosis, or programmed cell death, is one of the distinguished mechanisms of cytotoxic agents. It is an important approach to express the cell death pathway and most of the anticancer drugs induce apoptosis in tumor cells. Annexin V-FITC is a reagent that can detect and measure quantitate of apoptotic cells by flow cytometry. Staining cells with PI and Annexin V-FITC show the differences between live, apoptotic, dead, and late apoptotic or necrotic cells. Thus, this method provides evidence on the pathway of cell death.
Death pathway of the carcinogenic cell lines was detected by Annexin V-FITC Apoptosis Detection Kit (BD, Pharmingen, City, US State abbrev. if applicable, Country) as reported in the manufacturer’s instructions. […] After 24 h incubation period, cells were harvested by centrifugation at 1200 rpm for 5 min. at room temperature, rinsed with cold water twice and then suspended at 1 × 10^6 cells/mL concentration in Annexin V-FITC binding buffer. Propidium iodide ([…]) and annexin V-FITC ([…]) were added for staining the cells and the fluorescence measurements was performed using a flow cytometer. FCSExpress software (version, Manufacturer, City, US State abbrev. if applicable, Country) was used to display the percent of normal and apoptotic cells at different stages. […] The experiments were carried out in triplicate.

[6] = test system: DNA synthesis of C6 cells; experiment: DNA synthesis inhibition assay (BrdU cell proliferation); format: cell-based, Rat; conditions: C6, IC50/4 to 4 × IC50, 24 h
Experimental: This immunostaining assay is related to detecting the attendance of BrdU into nuclear DNA instead of thymidine during S-phase of the cell cycle using specific anti-BrdU antibodies. Thus, this study was performed to evaluate inhibitory effects of compounds 4d, 4e, and 4h on proliferation of C6 cell lines. […] Figure 2 represents the DNA synthesis inhibitory effect of compounds 4d, 4e, and 4h on C6 cells.
The BrdU cell proliferation method was performed to analyse the effects of compounds 4d, 4e and 4h on proliferation of C6 cells. C6 cells were seeded into the 96-well plates at a density of 1 × 10^4 cells. […] At the end of the incubation period, BrdU solution was added and cells were reincubated for 2 h at 37 °C. Anti-BrdU-POD ([…]) was added and the mixture was incubated for 90 min. Microplates were washed with PBS for three times. After adding substrate solution, the mixture was incubated for 15 min. OD of the wells were determined at 492 nm.

[7] = Homo sapiens, A549, 24 h incubation
[8] = Homo sapiens, MCF7, 24 h incubation
[9] = Homo sapiens, HT-29, 24 h incubation

Compound | Q1 percentage of necrotic cells (C6 cell line; C6, IC50 (0.03 mM)) | Q2 percentage of late apoptotic cells (C6 cell line; C6, IC50 (0.03 mM)) | Q4 percentage of early apoptotic cells (C6 cell line; C6, IC50 (0.03 mM)) | percentages of apoptotic cells (C6 cell line) | IC50 [1, 7] | IC50 ([2]; Rattus norvegicus, Glioma cell) | IC50 [3, 8] | IC50 [4, 9] | IC50 ([5]; Mus musculus, NIH3T3) | melting point | other results
N.N.[Cl][Pt][Cl] [Cisplatin, reference compound] | 3.5% | 18.3% | 2.6% | 20.9% | – | – | – | – | – | – | IC50 ([1]; 24 h incubation): 60 µM; IC50 [2]: 30 µM; IC50 ([3]; 24 h incubation): 50 µM; IC50 ([4]; 24 h incubation): 60 µM; IC50 [5]: > 1000 µM
O=C(CSc1nc2cc(Cl)ccc2s1)NN=Cc1ccc(N2CCCCC2)cc1 [Compound 4a, 2-((5-Chlorobenzothiazol-2-yl)thio)-N’-(4-(piperidin-1-yl)benzylidene)acetohydrazide] | – | – | – | – | > 1000 µM | 100 µM | 490 µM | 520 µM | 100 µM | 178 to 179 °C | –
CC1CCCCN1c1ccc(C=NNC(=O)CSc2nc3cc(Cl)ccc3s2)cc1 (stereo not drawn) [Compound 4b, 2-((5-Chlorobenzothiazol-2-yl)thio)-N’-(4-(2-methylpiperidin-1-yl)benzylidene)acetohydrazide] | – | – | – | – | 1000 µM | 100 µM | > 1000 µM | 1000 µM | 100 µM | 138 to 139 °C | –
CC1CCCN(c2ccc(C=NNC(=O)CSc3nc4cc(Cl)ccc4s3)cc2)C1 (stereo not drawn) [Compound 4c, 2-((5-Chlorobenzothiazol-2-yl)thio)-N’-(4-(3-methylpiperidin-1-yl)benzylidene)acetohydrazide] | – | – | – | – | 520 µM | 100 µM | 100 µM | 300 µM | 30 µM | 149 to 150 °C | –
CC1CCN(c2ccc(C=NNC(=O)CSc3nc4cc(Cl)ccc4s3)cc2)CC1 [Compound 4d, 2-((5-Chlorobenzothiazol-2-yl)thio)-N’-(4-(4-methylpiperidin-1-yl)benzylidene)acetohydrazide] | 6.9% | 3.1% | 2.4% | 5.5% | > 1000 µM | 30 µM | 100 µM | 300 µM | > 1000 µM | – | DNA synthesis inhibitory activity compared with cisplatin [6]: higher inhibition potency than cisplatin at all concentrations; Q1 percentage of necrotic cells (C6 cell line; C6, 2 × IC50 (0.06 mM)): 4.5%; Q2 percentage of late apoptotic cells (C6 cell line; C6, 2 × IC50 (0.06 mM)): 7.1%; Q3 percentage of viable cells (C6 cell line; C6, 2 × IC50 (0.06 mM)): 74.5%; Q4 percentage of early apoptotic cells (C6 cell line; C6, 2 × IC50 (0.06 mM)): 13.9%; Q3 percentage of viable cells (C6 cell line; C6, IC50 (0.03 mM)): 87.6%; Q1 percentage of necrotic cells (C6 cell line; C6, IC50/2 (0.015 mM)): 16.4%; Q2 percentage of late apoptotic cells (C6 cell line; C6, IC50/2 (0.015 mM)): 12.3%; Q4 percentage of early apoptotic cells (C6 cell line; C6, IC50/2 (0.015 mM)): 0.1%; viability at 15 µM (C6 cell line; C6, IC50/2 (0.015 mM)): 71.2%
COc1ccc(N2CCN(c3ccc(C=NNC(=O)CSc4nc5cc(Cl)ccc5s4)cc3)CC2)cc1 [Compound 4e, 2-((5-Chlorobenzothiazol-2-yl)thio)-N’-(4-(4-(4-methoxyphenyl)piperazin-1-yl)benzylidene)acetohydrazide] | 9.8% | 16.0% | 3.5% | 19.5% | 30 µM | 30 µM | 300 µM | > 1000 µM | 10 µM | – | selectivity index (SI) ([5]; NIH3T3 versus cancer cells): 0.33; DNA synthesis inhibitory activity compared with cisplatin [6]: higher antiproliferative effect than cisplatin at the concentrations of IC50/2, IC50, 2 × IC50, and 4 × IC50; Q1 percentage of necrotic cells (C6 cell line; C6, 2 × IC50 (0.06 mM)): 10.1%; Q2 percentage of late apoptotic cells (C6 cell line; C6, 2 × IC50 (0.06 mM)): 14.0%; Q3 percentage of viable cells (C6 cell line; C6, 2 × IC50 (0.06 mM)): 73.3%; Q4 percentage of early apoptotic cells (C6 cell line; C6, 2 × IC50 (0.06 mM)): 2.5%; Q3 percentage of viable cells (C6 cell line; C6, IC50 (0.03 mM)): 70.7%; Q1 percentage of necrotic cells (C6 cell line; C6, IC50/2 (0.015 mM)): 13.5%; Q2 percentage of late apoptotic cells (C6 cell line; C6, IC50/2 (0.015 mM)): 3.8%; Q4 percentage of early apoptotic cells (C6 cell line; C6, IC50/2 (0.015 mM)): 0%; viability at 15 µM (C6 cell line; C6, IC50/2 (0.015 mM)): 82.6%
COc1ccc2sc(SCC(=O)NN=Cc3ccc(N4CCCCC4)cc3)nc2c1 [Compound 4f, 2-((5-Methoxybenzothiazol-2-yl)thio)-N’-(4-(piperidin-1-yl)benzylidene)acetohydrazide] | – | – | – | – | > 1000 µM | > 1000 µM | > 1000 µM | > 1000 µM | 30 µM | 138 to 139 °C | –
COc1ccc2sc(SCC(=O)NN=Cc3ccc(N4CCCCC4C)cc3)nc2c1 (stereo not drawn) [Compound 4g, 2-((5-Methoxybenzothiazol-2-yl)thio)-N’-(4-(2-methylpiperidin-1-yl)benzylidene)acetohydrazide] | – | – | – | – | > 1000 µM | > 1000 µM | > 1000 µM | > 1000 µM | 100 µM | 138 to 139 °C | –
COc1ccc2sc(SCC(=O)NN=Cc3ccc(N4CCC(C)CC4)cc3)nc2c1 [Compound 4i, 2-((5-Methoxybenzo[d]thiazol-2-yl)thio)-N’-(4-(4-methylpiperidin-1-yl)benzylidene)acetohydrazide] | – | – | – | – | 490 µM | 100 µM | 300 µM | 1000 µM | 30 µM | 149 to 150 °C | –
COc1ccc(N2CCN(c3ccc(C=NNC(=O)CSc4nc5cc(OC)ccc5s4)cc3)CC2)cc1 [Compound 4j, 2-((5-Methoxybenzo[d]thiazol-2-yl)thio)-N’-(4-(4-(4-methoxyphenyl)piperazin-1-yl)benzylidene)acetohydrazide] | – | – | – | – | > 1000 µM | > 1000 µM | > 1000 µM | > 1000 µM | > 1000 µM | 199 to 200 °C | –

From article PMC6102592, “Synthesis of New Benzothiazole Acylhydrazones as Anticancer Agents” (Molecules : A Journal of Synthetic Chemistry and Natural …, 2018)
